In patent US7767817B2, “Water soluble boronic acid fluorescent reporter compounds and methods of use thereof” (priority 2003, dated 2010):
“And” between values parts separate entries of the source, which are not always exact repeats. Identical values can stand only once. Like-named read-outs stand apart in the source and are kept apart here. Each block holds one molecule with its values, some of them ahead of it.

Assays:
[1] = Fluorescence binding study with glucose; settings: for Association constant (Ka) with glucose: 0.1 M phosphate buffer pH 7.4, 1:1 complex assumed; for fluorescence intensity change ΔI/I0: pH 7.4; for maximum fluorescence intensity increase: physiological pH
Procedure: (§1) For a typical sugar-BTBA fluorescent measurement, a 1.0×10^−5 M stock solution of BTBA in 0.10 M phosphate buffer at pH 7.4 was made as solution A. […] Solution B was titrated into solution A in order to make mixtures with a constant concentration of BTBA and a range of concentrations of the sugar. Each mixture was allowed to stand for at least 10 min, then 3.0 mL of the mixture was transferred into a cuvette for fluorescence measurement.
(§2) The association constants (Ka) were determined according to the method III in Valeur's publication (J. Phys. Chem. 1988, 92, 6233).

[2] = Fluorescence quantum yield; format: physicochemical; settings: 0.1 M phosphate buffer pH 7.4
Procedure: The effect of various carbohydrates on the fluorescent properties of compound 1 was determined in phosphate buffer at pH 7.4. The emission spectral change of 1 with fructose at different concentrations in 0.1 M aqueous phosphate buffer (pH 7.4) is shown in FIG. 4. A 41-fold emission intensity increase is observed in presence of 50 mM fructose. To the best of our knowledge, such a large emission intensity increase has never been reported for boronic acid-based saccharide sensors involving the ICT mechanism. The quantum yields of 1 in the absence (φF=0.010) and in the presence of 50 mM fructose (φF=0.42) in 0.1 M phosphate buffer (pH 7.4) were obtained using 8-quinoline boronic acid (φF=0.58 in 12 M H2SO4) as a reference compound.
For example, addition of fructose (50 mM) to the solution of 7 induced a 36-fold fluorescence intensity increase at 433 nm and a 0.55-fold fluorescence intensity decrease at 513 nm (FIG. 14). […] To the best of our knowledge, such large emission intensity changes at two wavelengths have never been reported for boronic acid-based saccharide sensors. The quantum yields (φF) of 7 were determined as 0.07 at 513 nm in 0.1 M phosphate buffer (pH 7.4) in the absence of a sugar and 0.23 at 433 nm in the presence of 50 mM of fructose, using 8-quinoline boronic acid (φF=0.58 in 12 M H2SO4) as a reference compound.

[3] = Fluorescence binding study with tagatose
Procedure: as §1, §2

[4] = Fluorescence intensity pH profile (apparent pKa); format: physicochemical
Source text: Since the fluorescence intensity increase upon binding with a sugar seems to be a general phenomenon, the fluorescence change mechanism of compound 5 at pH 7.4 was investigated. For this purpose, the fluorescence pH profiles of both compound 5 alone and compound 5 in the presence of fructose (0.5 M) were studied. The fluorescence intensity of 5 at 334 nm in the absence of sugars decreased upon changing the pH from 3 to 12 (FIG. 3). An apparent pKa of 7.0 was observed, which is assigned to the boronic acid moiety. […] It is well-known that the binding of a diol to boronic acid often lowers the pKa of the boron species) (Springsteen, G.; Wang, B. Tetrahedron 2002, 58, 5291-5300). Therefore, the pKa, which drops from 7.0 to 4.0, can also be reasonably assigned to boron. […] It seems that the fluorescence intensity change of compound 5 is also due to diol's perturbation as that of 8-quinolineboronic acid.
To examine the relationship between the fluorescence intensity changes and the boron ionization states, the pH profile of the fluorescence intensity in the absence and presence of fructose and glucose at a fixed concentration (50 mM) was also studied (FIG. 6). […] It is worth mentioning that the pKa of the protonated dimethyl amino group of 1 is […] the emission wavelength of 1 with the protonated dimethyl amino group at low pH is about 238 nm. Therefore, the fluorescence intensity of 1 at 445 nm was not affected by the protonated dimethyl amino group. The fluorescence intensity changes correspond to the boronic acid pKa (9.4) and therefore hybridization changes, which was responsible for the fluorescence intensity changes observed.
Since the fluorescence intensity increase upon binding with a sugar seems to be a general phenomenon, next the conditions under which optimal fluorescence intensity changes are observed upon addition of a sugar was investigated. For this purpose, the fluorescence pH profiles of both compound 6 alone and in the presence of fructose (0.5 M) were studied. The fluorescence intensity of 6 in the absence of sugars increased by 17-fold upon changing the pH from 3 to 12 (FIG. 10). […] Furthermore, one would expect the pKa values of the other two ionizable groups, the carboxylic acid and the quinolinium groups, to be less than 7. Therefore, assigning the pKa at 7.9 to the boronic acid moiety is the most reasonable option. […] It is well-known that the binding of a diol to boronic acid often lowers the pKa of the boron species. […] Upon addition of fructose, the pKa of the boron drops to about 5.2, which ensures that most of the boron species are in the anionic tetrahedral state at physiological pH.
(§3) Since the fluorescence intensity increase upon binding with a sugar seems to be a general phenomenon, the use of 5-QBA functions as a fluorescent probe for diols was investigated. The fluorescence pH profiles of both 5-QBA alone and 5-QBA in the presence of D-fructose (0.5 M) were investigated. […] In order to assign each pKa, the ^11B NMR spectra of 5-QBA and its ester in a mixed deuterated methanol-water (1:1) solvent at different pH were obtained. Methanol was used so that the concentration of 5-QBA can be increased to 57 mM so as to allow for a meaningful NMR determination within a reasonable period of time.
To understand the structural features associated with the fluorescence intensity changes, we studied the pH profiles of the fluorescence intensity in the absence (FIG. 18) and presence of fructose and glucose at a fixed concentration (50 mM). […] The fluorescence intensity at 513 nm increased very quickly when pH increased from 1.78 to 7.04 (thin lines in FIG. 18), and then decreased in the pH range of 7.04-10.54 (thick lines in FIG. 18).

[5] = Fluorescence binding study with galactose; settings: for fluorescence intensity change ΔI/I0: pH 7.4; for Association constant (Ka) with galactose: 0.1 M phosphate buffer pH 7.4, 1:1 complex assumed
Procedure: as §1, §2

[6] = Fluorescence binding study with sorbitol
Procedure: as §1, §2

[7] = Fluorescence binding study with mannose; settings: for Association constant (Ka) with mannose: 0.1 M phosphate buffer pH 7.4, 1:1 complex assumed
Procedure: as §1, §2

[8] = Fluorescence binding study with fructose; settings: for fluorescence intensity change ΔI/I0: pH 7.4; for Association constant (Ka) with fructose: 0.1 M phosphate buffer pH 7.4, 1:1 complex assumed
Procedure: as §1, §2

[9] = 11B NMR at different pH (pKa assignment); format: physicochemical; settings: absence of sugar; 11B NMR in deuterated methanol-water (1:1); read-out: second pKa corresponding to boronic acid ionization
Source text: as §3
It should be noted that the addition of 50% methanol to water solution results in minimal changes of the solution pH. The boron signal of 5-QBA appeared at 30.0 ppm at both pH 2.0 and 7.0, consistent with the neutral trigonal boron. At an increased pH (7.5), two boron signals at 30.0 and 10.0 ppm were observed indicating a mixture of both the neutral and anionic species. […] At pH 12, a single peak at 5.7 ppm was found indicating the presence of only the anionic tetrahedral state. […] This pKa assignment is opposite to that of 8-QBA. For the fructose ester of 5-QBA, we observed the same chemical shifts (at about 10.5 ppm) at pH 6.0 and 11. […] Such a pKa-switching seems to correspond to the highest fluorescence intensity change at pH 5.8 (FIG. 13).

[10] = Fluorescence binding study with arabinose; settings: 0.1 M phosphate buffer pH 7.4
Procedure: For a typical sugar-BTBA fluorescent measurement, a 1.0×10^−5 M stock solution of BTBA in 0.10 M phosphate buffer at pH 7.4 was made as solution A. The sugar was added to a portion of solution A to make a 1.0×10^−5 M BTBA, 1.0×10^−3 M sugar solution as solution B. Solution B was titrated into solution A in order to make mixtures with a constant concentration of BTBA and a range of concentrations of the sugar. Each mixture was allowed to stand for at least 10 min, then 3.0 mL of the mixture was transferred into a cuvette for fluorescence measurement.
as §2

[11] = in 12 M H2SO4; reference compound; cited from earlier work
[12] = literature value (Springsteen, Wang); cited from earlier work
[13] = literature value; cited from earlier work
[14] = literature value (Springsteen, Wang); cited from earlier work; remark: listed apart in the source
[15] = 0.1 M phosphate buffer pH 7.4, 1:1 complex assumed
[16] = 0.1 M phosphate buffer, absence of sugar, 0.1 M phosphate buffer, read-out: apparent pKa assigned to the boronic acid moiety

- Association constant (Ka) with glucose [1]: 4.0 ± 0.1 M⁻¹ and 5.1 ± 1.0 M⁻¹
- fluorescence intensity change ΔI/I0 ([1]; glucose 0.20 M, λex 270 nm, λem 400 nm): 6 (0.20)
- fluorescence intensity change ΔI/I0 ([1]; glucose 1.0 M, λex 300 nm, λem 445 nm): 17 (1.0)
- maximum fluorescence intensity increase ([1]; glucose 1 M): 17 fold
- quantum yield φF ([2]; absence of sugar): 0.010
- quantum yield φF ([2]; presence of 50 mM fructose): 0.42
- Association constant (Ka) with tagatose [3, 15]: 116 ± 2 M⁻¹
- fluorescence intensity change ΔI/I0 ([3]; tagatose 0.02 M, pH 7.4, λex 300 nm, λem 445 nm): 32 (0.02)
- pKa [4, 16]: 9.4
- fluorescence intensity change ΔI/I0 ([5]; galactose 0.025 M, λex 270 nm, λem 400 nm): 16 (0.025)
- fluorescence intensity change ΔI/I0 ([5]; galactose 0.50 M, λex 300 nm, λem 445 nm): 35 (0.50)
- Association constant (Ka) with sorbitol [6, 15]: 226 ± 5 M⁻¹
- fluorescence intensity change ΔI/I0 ([6]; sorbitol 0.10 M, pH 7.4, λex 300 nm, λem 445 nm): 42 (0.10)
- fluorescence intensity change ([6]; sorbitol at concentrations above 50 mM, physiological pH): more than 40 fold
- Association constant (Ka) with mannose [7]: 48 ± 5 M⁻¹
- fluorescence intensity change ΔI/I0 ([7]; mannose 0.025 M, pH 7.4, λex 270 nm, λem 400 nm): 14 (0.025)
- emission intensity increase ([8]; 50 mM fructose, 0.1 M aqueous phosphate buffer pH 7.4): 41 fold
- fluorescence intensity change ΔI/I0 ([8]; fructose 0.025 M, λex 270 nm, λem 400 nm): 25 (0.025)
- fluorescence intensity change ΔI/I0 ([8]; fructose 0.05 M, λex 300 nm, λem 445 nm): 41 (0.05)
- fluorescence intensity change ([8]; fructose at concentrations above 50 mM, physiological pH): more than 40 fold
SMILES: CN(C)c1ccc(B(O)O)c2ccccc12 [Compound 1, 4-(dimethylamino)-naphthalene boronic acid]

- pKa [9]: 7 to 12
- pKa ([4]; phosphate buffer, absence of a sugar, read-out: pKa assigned to the quinolinium nitrogen): 5.2
- Association constant (Ka) with galactose [5]: 90 ± 2 M⁻¹
- Association constant (Ka) with mannose [7]: 60 ± 2 M⁻¹
- Binding constant with arabinose [10]: 121 ± 16 M⁻¹
- Association constant (Ka) with fructose [8]: 924 ± 88 M⁻¹
- binding constant with D-fructose, increase compared with 8-QBA ([8]; 5-QBA versus 8-QBA): more than 8 folds
SMILES: OB(O)c1cccc2ncccc12 [Compound 3]

SMILES: OB(O)c1cccc2cccnc12 [Compound 4, 8-quinolineboronic acid]
- quantum yield φF [11]: 0.58

- Association constant (Ka) with glucose [1]: 27 M⁻¹ and 27 ± 4.9 M⁻¹
- pKa [4, 16]: 7
- Association constant (Ka) with galactose [5]: 19 M⁻¹ and 19 ± 0.7 M⁻¹
- Association constant (Ka) with mannose [7]: 30 ± 1.4 M⁻¹
- Association constant (Ka) with fructose [8]: 656 ± 28 M⁻¹
SMILES: OB(O)c1cc2ccccc2s1 [Compound 5, 2-Benzothienylboronic acid]

- maximum fluorescence intensity increase ([1]; glucose 0.2 M): 6 fold
- pKa [4, 16]: 7.9
- emission intensity increase ([8]; 25 mM fructose, phosphate buffer pH 7.4): 25 fold
SMILES: O=C(O)c1cc(-c2ccc(B(O)O)cc2)nc2ccccc12 [Compound 6, 2-(4-phenylboronic acid)-quinoline-4-carboxylic acid]

SMILES: OB(O)c1ccccc1 [phenylboronic acid]
- Ka for galactose [12]: 15 M⁻¹
- Ka for fructose [13]: 162 M⁻¹
- Ka for glucose [14]: 5 M⁻¹
